Measured values reported in patent publication US7553862B2, “4-amino-1,5-substituted-1,5-dihydro-imidazol-2-ones” (Hoffmann-La Roche Inc., priority 2006, dated 2009).

Target: T1, mGlyT-1b (Mus musculus, UniProt P28571)
T1 construct: host or cells: Flp-in-CHO
T1 sequence (P28571 1-651 isoform P28571-2): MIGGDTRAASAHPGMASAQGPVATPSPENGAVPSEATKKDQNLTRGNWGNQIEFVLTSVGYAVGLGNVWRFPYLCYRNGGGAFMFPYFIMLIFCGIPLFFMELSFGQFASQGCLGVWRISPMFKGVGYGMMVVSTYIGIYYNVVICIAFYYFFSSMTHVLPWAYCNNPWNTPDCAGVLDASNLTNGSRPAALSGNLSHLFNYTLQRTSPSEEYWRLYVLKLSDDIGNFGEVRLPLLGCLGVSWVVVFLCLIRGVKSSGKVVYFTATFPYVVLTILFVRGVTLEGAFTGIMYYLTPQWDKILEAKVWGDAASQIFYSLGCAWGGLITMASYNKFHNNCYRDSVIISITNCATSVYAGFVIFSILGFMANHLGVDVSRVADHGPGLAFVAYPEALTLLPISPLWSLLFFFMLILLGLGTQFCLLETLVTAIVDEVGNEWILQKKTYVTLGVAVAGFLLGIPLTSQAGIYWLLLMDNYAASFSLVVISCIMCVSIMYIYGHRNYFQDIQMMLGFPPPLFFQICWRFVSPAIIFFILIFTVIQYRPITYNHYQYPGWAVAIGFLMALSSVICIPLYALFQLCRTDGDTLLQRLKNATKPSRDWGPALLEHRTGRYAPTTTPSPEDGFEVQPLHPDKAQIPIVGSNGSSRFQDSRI
Experiment: Glycine uptake inhibition assay (mGlyT-1b)
Format: cell-based
Conditions: [3H]-glycine uptake in Flp-in-CHO cells transfected with mGlyT-1b cDNA; read-out: IC50 (μM) at GlyT-1
Description: DMEM complete medium: Nutrient mixture F-12 (Gibco Life-technologies), fetal bovine serum (FBS) 5%, (Gibco life technologies), Penicillin/Streptomycin1% (Gibco life technologies), Hygromycin 0.6 mg/ml (Gibco life technologies), Glutamine 1 mM Gibco life technologies) Uptake buffer (UB): 150 mM NaCl, 10 mM Hepes-Tris, pH 7.4, 1 mM CaCl2, 2.5 mM KCl, 2.5 mM MgSO4, 10 mM (+) D-glucose.
Flp-in™-CHO (Invitrogen Cat n° R758-07) cells stably transfected with mGlyT1b cDNA.
Glycine Uptake Inhibition Assay (mGlyT-1b)
On day 1 mammalian cells, (Flp-in™-CHO), transfected with mGlyT-1b cDNA, were plated at the density of 40,000 cells/well in complete F-12 medium, without hygromycin in 96-well culture plates. On day 2, the medium was aspirated and the cells were washed twice with uptake buffer (UB). The cells were then incubated for 20 min at 22° C. with either (i) no potential competitor, (ii) 10 mM non-radioactive glycine, (iii) a concentration of a potential inhibitor. A range of concentrations of the potential inhibitor was used to generate data for calculating the concentration of inhibitor resulting in 50% of the effect (e.g. IC50, the concentration of the competitor inhibiting glycine uptake of 50%). A solution was then immediately added containing [^3H]-glycine 60 nM (11-16 Ci/mmol) and 25 μM non-radioactive glycine. The plates were incubated with gentle shaking and the reaction was stopped by aspiration of the mixture and washing (three times) with ice-cold UB. The cells were lysed with scintillation liquid, shaken 3 hours and the radioactivity in the cells was counted using a scintillation counter.

SMILES	IC50 [µM]
Cc1ccc(C2C(NCc3ccccc3)=NC(=O)N2c2ccc(Cl)c(Cl)c2)cc1 (racemic) [Example 24, (Rac)-4-benzylamino-1-(3,4-dichloro-phenyl)-5-p-tolyl-1,5-dihydro-imidazol-2-one]	0.04
O=C1N=C(NCc2ccccc2)C(c2ccc(F)cc2)N1c1ccc(F)c(Cl)c1 (racemic) [Example 44, Rac-4-Benzylamino-1-(3-chloro-4-fluoro-phenyl)-5-(4-fluoro-phenyl)-1,5-dihydro-imidazol-2-one]	0.058
O=C1N=C(NCc2ccc(F)cc2)C(c2ccccc2)N1c1ccc(Cl)c(Cl)c1 (racemic) [Example 51, Rac-1-(3,4-dichloro-phenyl)-4-(4-fluorobenzylamino)-5-phenyl-1,5-dihydro-imidazol-2-one]	0.007
O=C1N=C(NCC2CCCCC2)C(c2ccccc2)N1c1ccc(Cl)c(Cl)c1 (racemic) [Example 58, (Rac)-4-(cyclohexylmethyl-amino)-1-(3,4-dichloro-phenyl)-5-phenyl-1,5-dihydro-imidazol-2-one]	0.024
CCCCCCNC1=NC(=O)N(c2ccc(Cl)c(Cl)c2)C1c1ccccc1 (racemic) [Example 57, (Rac)-1-(3,4-dichloro-phenyl)-4-hexylamino-5-phenyl-1,5-dihydro-imidazol-2-one]	0.077
CC(C)CCNC1=NC(=O)N(c2ccc(Cl)c(Cl)c2)C1c1ccccc1 (racemic) [Example 53, Rac-1-(3,4-dichloro-phenyl)-4-(3-methyl-butylamino)-5-phenyl-1,5-dihydroimidazol-2-one]	0.082
Cc1ccc(C2C(NCc3ccccc3)=NC(=O)N2c2ccc(Cl)c(Cl)c2)cc1C (racemic) [Example 25, Rac-4-benzylamino-1-(3,4-dichloro-phenyl)-5-(3,4-dimethyl-phenyl)-1,5-dihydro-imidazol-2-one]	0.057
O=C1N=C(NCc2ccccc2)C(c2ccc(F)cc2)N1c1ccc(Cl)c(Cl)c1 (racemic) [Example 43, (Rac)-4-benzylamino-1-(3,4-dichloro-phenyl)-5-(4-fluoro-phenyl)-1,5-dihydro-imidazol-2-one]	0.03

Now from value to molecule:

IC50 [µM]	SMILES
0.035	O=C1N=C(NCc2ccccc2)C(c2ccc(Cl)cc2)N1c1ccc(Cl)c(Cl)c1 (racemic) [Example 28, (Rac)-4-benzylamino-5-(4-chloro-phenyl)-1-(3,4-dichloro-phenyl)-1,5-dihydro-imidazol-2-one]
0.062	O=C1N=C(NCc2ccccc2)[C@@H](c2ccccc2)N1c1ccc(Cl)cc1 (single isomer, unassigned) [Example 50, (−)-4-Benzylamino-1-(4-chloro-phenyl)-5-phenyl-1,5-dihydro-imidazol-2-one]
0.062	O=C1N=C(NCc2ccccc2)C(c2ccccc2)N1c1ccc(Cl)cc1 (racemic) [Example 10, (Rac)-4-benzylamino-1-(4-chloro-phenyl)-5-phenyl-1,5-dihydro-imidazol-2-one]
0.076	O=C1N=C(NCc2ccccc2)C(c2ccccc2)N1c1ccc(Cl)c(Cl)c1 (racemic) [Example 13, Rac-4-benzylamino-1-(3,4-dichloro-phenyl)-5-phenyl-1,5-dihydro-imidazol-2-one]
